# Tested on: RBCs
# Details: Table 1, D-Ala scanning of 1a
# Protocol: RBC binding ranked by MESF (molecules of equivalent soluble fluorescence), or intensity of fluorescent signal measured when RBCs were incubated with a given concentration of peptide.
# High=MESF value>1000 fluorescent units
# Medium=MESF Value from 300 to 1000 fluorescent units
# Low=MESF Value from 15 to 300 fluorescent units
row,Substance,Classification of RBC binding properties (MESF)
1,H-phe-trp-his-pro-trp-ala-met-met-tyr-lys-Gly-Gly-Gly-lys(Biotin)-NH2 [Peptide 1a],High (MESF value>1000 fluorescent units)
2,H-phe-trp-ala-pro-trp-ala-met-met-tyr-lys-Gly-Gly-Gly-lys(Biotin)-NH2 [Peptide 1d],Medium (MESF Value from 300 to 1000 fluorescent units)
3,H-phe-trp-his-pro-trp-ala-met-met-tyr-ala-Gly-Gly-Gly-lys(Biotin)-NH2 [Peptide 1j],High (MESF value>1000 fluorescent units)
4,H-phe-trp-his-pro-trp-ala-met-met-ala-lys-Gly-Gly-Gly-lys(Biotin)-NH2 [Peptide 1i],Low (MESF Value from 15 to 300 fluorescent units)
5,H-phe-trp-his-pro-trp-ala-ala-met-tyr-lys-Gly-Gly-Gly-lys(Biotin)-NH2 [ig],Does Not Bind (MESF Value below 15 fluorescent units)
6,H-ala-trp-his-pro-trp-ala-met-met-tyr-lys-Gly-Gly-Gly-lys(Biotin)-NH2 [Peptide 1b],Low (MESF Value from 15 to 300 fluorescent units)
7,H-phe-trp-his-pro-trp-ala-met-ala-tyr-lys-Gly-Gly-Gly-lys(Biotin)-NH2 [Peptide 1h],Low (MESF Value from 15 to 300 fluorescent units)
8,H-phe-trp-his-ala-trp-ala-met-met-tyr-lys-Gly-Gly-Gly-lys(Biotin)-NH2 [Peptide 1e],High (MESF value>1000 fluorescent units)
9,H-phe-ala-his-pro-trp-ala-met-met-tyr-lys-Gly-Gly-Gly-lys(Biotin)-NH2 [Peptide 1c],Does Not Bind (MESF Value below 15 fluorescent units)
10,H-phe-trp-his-pro-ala-ala-met-met-tyr-lys-Gly-Gly-Gly-lys(Biotin)-NH2 [Peptide 1f],Does Not Bind (MESF Value below 15 fluorescent units)

# Same assay, conditions: Table 2, 1a analogs
row,Substance,Classification of RBC binding properties (MESF)
1,H-phe-trp-his-αMepro-trp-ala-met-met-tyr-lys-Gly-Gly-Gly-lys(Biotin)-NH2 [Peptide 2m],Does Not Bind (MESF Value below 15 fluorescent units)
2,H-phe-trp-his-pro-trp-ala-met-met-tyr-lys-Gly-Gly-Gly-lys(Biotin)-NH2 [Peptide 1a],High (MESF value>1000 fluorescent units)
3,H-phe-trp-his-pro-trp-ala-met-met-tyr-lys-Gly-Gly-Gly-lys(C18diacid)-lys(Biotin)-NH2 [Peptide 2e],Medium (MESF Value from 300 to 1000 fluorescent units)
4,H-phe-trp-his-pro-trp-ala-leu-leu-tyr-lys-Gly-Gly-Gly-lys(Biotin)-NH2 [Peptide 2c],Does Not Bind (MESF Value below 15 fluorescent units)
5,H-phe-trp-his-pro-trp-ala-met-met-tyr-lys-Gly-Gly-Gly-(H-phe-trp-his-pro-trp-ala-met-met-tyr-lys-Gly-Gly-Gly)-lys-Gly-Gly-lys(Biotin)-NH2 [Peptide 2d],High (MESF value>1000 fluorescent units)
6,H-phe-trp-his-pro-trp-ala-nle-nle-tyr-lys-Gly-Gly-Gly-lys(Biotin)-NH2 [Peptide 2a],Medium (MESF Value from 300 to 1000 fluorescent units)
7,H-phe-trp-his-pro-trp-ala-met-met-tyr-lys-Gly-Gly-Gly-cys(trt)-Gly-lys(Biotin)-NH2 [Peptide 2h],Does Not Bind (MESF Value below 15 fluorescent units)
8,H-phe-trp-ser-pro-trp-ala-met-met-tyr-lys-Gly-Gly-Gly-lys(Biotin)-NH2 [Peptide 2i],Low (MESF Value from 15 to 300 fluorescent units)
9,H-phe-trp-tyr-pro-trp-ala-met-met-tyr-lys-Gly-Gly-Gly-lys(Biotin)-NH2 [Peptide 2j],Low (MESF Value from 15 to 300 fluorescent units)
10,H-phe-trp-his-NMeGly-trp-ala-met-met-tyr-lys-Gly-Gly-Gly-lys(Biotin)-NH2 [Peptide 2k],Low (MESF Value from 15 to 300 fluorescent units)
11,H-phe-trp-his-L-Pro-trp-ala-met-met-tyr-lys-Gly-Gly-Gly-lys(Biotin)-NH2 [Peptide 2l],Low (MESF Value from 15 to 300 fluorescent units)
12,Ac-phe-trp-his-pro-trp-ala-met-met-tyr-lys-Gly-Gly-Gly-lys(Biotin)-NH2 [Peptide 2g],Does Not Bind (MESF Value below 15 fluorescent units)
13,H-phe-trp-his-pro-trp-ala-ala-ala-tyr-lys-Gly-Gly-Gly-lys(Biotin)-NH2 [Peptide 2b],High (MESF value>1000 fluorescent units)
14,H-ala-pro-met-phe-tyr-trp-lys-his-met-trp-Gly-Gly-Gly-lys(Biotin)-NH2 [Peptide 2f],Low (MESF Value from 15 to 300 fluorescent units)

# Same assay, conditions: Table 3, structurally-diverse all-D-peptides
row,Substance,Classification of RBC binding properties (MESF)
1,H-phe-phe-his-pro-trp-ser-trp-thr-ser-lys-Gly-Gly-Gly-lys(Biotin)-NH2 [Peptide 3a],High (MESF value>1000 fluorescent units)
2,H-val-phe-his-pro-phe-trp-Gly-tyr-phe-lys-Gly-Gly-Gly-lys(Biotin)-NH2 [Peptide 3s],Does Not Bind (MESF Value below 15 fluorescent units)
3,H-phe-trp-his-pro-trp-ala-met-met-tyr-lys-Gly-Gly-Gly-lys(Biotin)-NH2 [Peptide 1a],High (MESF value>1000 fluorescent units)
4,H-trp-val-pro-Gly-phe-trp-tyr-his-tyr-lys-Gly-Gly-Gly-lys(Biotin)-NH2 [Peptide 3t],Low (MESF Value from 15 to 300 fluorescent units)
5,H-tyr-phe-leu-tyr-leu-pro-tyr-his-thr-lys-Gly-Gly-Gly-lys(Biotin)-NH2 [Peptide 3v],Low (MESF Value from 15 to 300 fluorescent units)
6,H-ser-trp-his-pro-val-trp-Gly-trp-leu-lys-Gly-Gly-Gly-lys(Biotin)-NH2 [Peptide 3g],Low (MESF Value from 15 to 300 fluorescent units)
7,H-trp-tyr-leu-pro-pro-leu-trp-his-ala-lys-Gly-Gly-Gly-lys(Biotin)-NH2 [Peptide 3u],Does Not Bind (MESF Value below 15 fluorescent units)
8,H-tyr-trp-val-pro-met-trp-val-his-val-lys-Gly-Gly-Gly-lys(Biotin)-NH2 [Peptide 3w],Low (MESF Value from 15 to 300 fluorescent units)
9,H-phe-phe-his-pro-tyr-Gly-leu-phe-val-lys-Gly-Gly-Gly-lys(Biotin)-NH2 [Peptide 3b],Medium (MESF Value from 300 to 1000 fluorescent units)
10,H-phe-trp-his-pro-trp-phe-phe-lys-thr-lys-Gly-Gly-Gly-lys(Biotin)-NH2 [Peptide 3c],Low (MESF Value from 15 to 300 fluorescent units)
11,H-leu-trp-his-pro-tyr-leu-phe-leu-trp-lys-Gly-Gly-Gly-lys(Biotin)-NH2 [Peptide 3f],Does Not Bind (MESF Value below 15 fluorescent units)
12,H-phe-trp-val-pro-phe-trp-trp-lys-thr-lys-Gly-Gly-Gly-lys(Biotin)-NH2 [Peptide 3d],Low (MESF Value from 15 to 300 fluorescent units)
13,H-leu-his-his-pro-trp-pro-tyr-phe-tyr-lys-Gly-Gly-Gly-lys(Biotin)-NH2 [Peptide 3e],Low (MESF Value from 15 to 300 fluorescent units)
14,H-phe-trp-tyr-val-his-thr-thr-Gly-trp-lys-Gly-Gly-Gly-lys(Biotin)-NH2 [Peptide 3j],Does Not Bind (MESF Value below 15 fluorescent units)
15,H-met-phe-his-pro-phe-ala-phe-met-tyr-lys-Gly-Gly-Gly-lys(Biotin)-NH2 [Peptide 3o],Medium (MESF Value from 300 to 1000 fluorescent units)
16,H-phe-phe-his-val-pro-val-phe-ser-val-lys-Gly-Gly-Gly-lys(Biotin)-NH2 [Peptide 3i],Medium (MESF Value from 300 to 1000 fluorescent units)
17,H-leu-phe-his-pro-trp-pro-ala-phe-pro-lys-Gly-Gly-Gly-lys(Biotin)-NH2 [Peptide 3l],High (MESF value>1000 fluorescent units)
18,H-pro-his-his-pro-phe-ala-leu-phe-leu-lys-Gly-Gly-Gly-lys(Biotin)-NH2 [Peptide 3q],Medium (MESF Value from 300 to 1000 fluorescent units)
19,H-phe-phe-his-pro-phe-ala-trp-phe-his-lys-Gly-Gly-Gly-lys(Biotin)-NH2 [Peptide 3h],Low (MESF Value from 15 to 300 fluorescent units)
20,H-leu-trp-ser-pro-val-phe-phe-phe-pro-lys-Gly-Gly-Gly-lys(Biotin)-NH2 [Peptide 3n],Does Not Bind (MESF Value below 15 fluorescent units)
21,H-leu-trp-his-pro-trp-ala-met-pro-glu-lys-Gly-Gly-Gly-lys(Biotin)-NH2 [Peptide 3m],Low (MESF Value from 15 to 300 fluorescent units)
22,H-phe-tyr-tyr-pro-trp-pro-val-thr-tyr-lys-Gly-Gly-Gly-lys(Biotin)-NH2 [Peptide 3k],Does Not Bind (MESF Value below 15 fluorescent units)
23,H-ser-Gly-val-asp-thr-tyr-leu-thr-his-lys-Gly-Gly-Gly-lys(Biotin)-NH2 [Peptide 3r],Medium (MESF Value from 300 to 1000 fluorescent units)
24,H-pro-phe-tyr-thr-tyr-his-trp-tyr-ser-lys-Gly-Gly-Gly-lys(Biotin)-NH2 [Peptide 3p],Does Not Bind (MESF Value below 15 fluorescent units)
